According to paper PMC12415923:

Test: Two-fold Williamson etherification: BINOL bis(chloroethoxyethyl ether) (Me/H/iPr-6_2) + BINOL bisphenol (Me/H/iPr-2), 1:1, Cs2CO3 (3.2 equiv); ring closure = phenoxide O-alkylation by alkyl chloride
Conditions: the molecule shown is the open-chain precursor; 42-membered ring; MeCN; 9.0 mM; 85.0 °C; 6.0 h

| Compound | ring closure, isolated yield [%] |
| --- | --- |
| COCOc1c(-c2ccc(OCCOCCCl)cc2)cc2ccccc2c1-c1c(OCOC)c(-c2ccc(OCCOCCOc3c(C(C)C)cc(-c4cc5ccccc5c(-c5c(OCOC)c(-c6cc(C(C)C)c(O)c(C(C)C)c6)cc6ccccc56)c4OCOC)cc3C(C)C)cc2)cc2ccccc12 [(R,S)-HiPr-M2_2 ((R)-H unit, (S)-iPr unit)] | 48.9 |
| COCOc1c(-c2ccc(OCCOCCCl)cc2)cc2ccccc2c1-c1c(OCOC)c(-c2ccc(OCCOCCOc3c(C(C)C)cc(-c4cc5ccccc5c(-c5c(OCOC)c(-c6cc(C(C)C)c(O)c(C(C)C)c6)cc6ccccc56)c4OCOC)cc3C(C)C)cc2)cc2ccccc12 [(S,S)-HiPr-M2_2] | 72.7 |
| COCOc1c(-c2ccc(O)cc2)cc2ccccc2c1-c1c(OCOC)c(-c2ccc(OCCOCCOc3ccc(-c4cc5ccccc5c(-c5c(OCOC)c(-c6ccc(OCCOCCCl)cc6)cc6ccccc56)c4OCOC)cc3)cc2)cc2ccccc12 [H-M2_2] | 77.8 |
| COCOc1c(-c2cc(C)c(O)c(C)c2)cc2ccccc2c1-c1c(OCOC)c(-c2cc(C)c(OCCOCCOc3c(C)cc(-c4cc5ccccc5c(-c5c(OCOC)c(-c6cc(C)c(OCCOCCCl)c(C)c6)cc6ccccc56)c4OCOC)cc3C)c(C)c2)cc2ccccc12 [Me-M2_2] | 59.4 |
| COCOc1c(-c2cc(C(C)C)c(O)c(C(C)C)c2)cc2ccccc2c1-c1c(OCOC)c(-c2cc(C(C)C)c(OCCOCCOc3c(C(C)C)cc(-c4cc5ccccc5c(-c5c(OCOC)c(-c6cc(C(C)C)c(OCCOCCCl)c(C(C)C)c6)cc6ccccc56)c4OCOC)cc3C(C)C)c(C(C)C)c2)cc2ccccc12 [iPr-M2_2] | 76.5 |

Test: Two-fold Williamson etherification: 3,3'-bis(4-hydroxyaryl)-BINOL-MOM diol (Me/H/iPr-2) + oligoethylene glycol bistosylate (1 equiv), Cs2CO3 (ca. 2-2.5 equiv); ring closure = phenoxide O-alkylation by tosylate
Conditions: the molecule shown is the open-chain precursor; 30-membered ring; MeCN; 1.0 mM; 85.0 °C

| Compound | ring closure, isolated yield [%] |
| --- | --- |
| COCOc1c(-c2ccc(O)cc2)cc2ccccc2c1-c1c(OCOC)c(-c2ccc(OCCOCCOCCOCCOCCOS(=O)(=O)c3ccc(C)cc3)cc2)cc2ccccc12 [H-M1_5] | 11 |
| COCOc1c(-c2cc(C)c(O)c(C)c2)cc2ccccc2c1-c1c(OCOC)c(-c2cc(C)c(OCCOCCOCCOCCOCCOS(=O)(=O)c3ccc(C)cc3)c(C)c2)cc2ccccc12 [Me-M1_5] | 21.1 |
| COCOc1c(-c2cc(C(C)C)c(O)c(C(C)C)c2)cc2ccccc2c1-c1c(OCOC)c(-c2cc(C(C)C)c(OCCOCCOCCOCCOCCOS(=O)(=O)c3ccc(C)cc3)c(C(C)C)c2)cc2ccccc12 [iPr-M1_5] | 19.6 |

Same assay, conditions: the molecule shown is the open-chain precursor; 33-membered ring; MeCN; 1.0 mM; 85.0 °C

| Compound | ring closure, isolated yield [%] |
| --- | --- |
| COCOc1c(-c2ccc(O)cc2)cc2ccccc2c1-c1c(OCOC)c(-c2ccc(OCCOCCOCCOCCOCCOCCOS(=O)(=O)c3ccc(C)cc3)cc2)cc2ccccc12 [H-M1_6] | 29.7 |
| COCOc1c(-c2cc(C)c(O)c(C)c2)cc2ccccc2c1-c1c(OCOC)c(-c2cc(C)c(OCCOCCOCCOCCOCCOCCOS(=O)(=O)c3ccc(C)cc3)c(C)c2)cc2ccccc12 [Me-M1_6] | 53.7 |
| COCOc1c(-c2cc(C(C)C)c(O)c(C(C)C)c2)cc2ccccc2c1-c1c(OCOC)c(-c2cc(C(C)C)c(OCCOCCOCCOCCOCCOCCOS(=O)(=O)c3ccc(C)cc3)c(C(C)C)c2)cc2ccccc12 [iPr-M1_6] | 41.2 |

Same assay, conditions: the molecule shown is the open-chain precursor; 36-membered ring; MeCN; 1.0 mM; 85.0 °C

| Compound | ring closure, isolated yield [%] |
| --- | --- |
| COCOc1c(-c2ccc(O)cc2)cc2ccccc2c1-c1c(OCOC)c(-c2ccc(OCCOCCOCCOCCOCCOCCOCCOS(=O)(=O)c3ccc(C)cc3)cc2)cc2ccccc12 [H-M1_7] | 32.1 |
| COCOc1c(-c2cc(C)c(O)c(C)c2)cc2ccccc2c1-c1c(OCOC)c(-c2cc(C)c(OCCOCCOCCOCCOCCOCCOCCOS(=O)(=O)c3ccc(C)cc3)c(C)c2)cc2ccccc12 [Me-M1_7] | 75 |
| COCOc1c(-c2cc(C(C)C)c(O)c(C(C)C)c2)cc2ccccc2c1-c1c(OCOC)c(-c2cc(C(C)C)c(OCCOCCOCCOCCOCCOCCOCCOS(=O)(=O)c3ccc(C)cc3)c(C(C)C)c2)cc2ccccc12 [iPr-M1_7] | 45.5 |

Same assay, conditions: the molecule shown is the open-chain precursor; 39-membered ring; MeCN; 1.0 mM; 85.0 °C

| Compound | ring closure, isolated yield [%] |
| --- | --- |
| COCOc1c(-c2ccc(O)cc2)cc2ccccc2c1-c1c(OCOC)c(-c2ccc(OCCOCCOCCOCCOCCOCCOCCOCCOS(=O)(=O)c3ccc(C)cc3)cc2)cc2ccccc12 [H-M1_8] | 40.3 |
| COCOc1c(-c2cc(C)c(O)c(C)c2)cc2ccccc2c1-c1c(OCOC)c(-c2cc(C)c(OCCOCCOCCOCCOCCOCCOCCOCCOS(=O)(=O)c3ccc(C)cc3)c(C)c2)cc2ccccc12 [Me-M1_8] | 38.2 |
| COCOc1c(-c2cc(C(C)C)c(O)c(C(C)C)c2)cc2ccccc2c1-c1c(OCOC)c(-c2cc(C(C)C)c(OCCOCCOCCOCCOCCOCCOCCOCCOS(=O)(=O)c3ccc(C)cc3)c(C(C)C)c2)cc2ccccc12 [iPr-M1_8] | 53.3 |
